In article PMC2799665:

Assay: End-to-end contact formation (no covalent bond): MR121 oxazine dye fluorescence quenched by C-terminal Trp through van der Waals contact/stacking; ns-resolved FCS; single-exponential fit over 6-300 ns with two-state model
Details: the molecule shown is the open-chain precursor; water (aqueous solution); 20.0 °C

SMILES: CCN1CCCc2cc3c(cc21)Oc1cc2c(cc1=N3)CCC[N+]=2CCCC(=O)NCC(=O)N[C@@H](CO)C(=O)NCC(=O)N[C@@H](CO)C(=O)NCC(=O)N[C@@H](CO)C(=O)N[C@@H](Cc1c[nH]c2ccccc12)C(=O)[O-] [MR121-Gly-Ser-Gly-Ser-Gly-Ser-Trp-O-]
- end-to-end contact formation time constant (ns (closing time constant tau+ = 1/k+)): 17.6

SMILES: CCN1CCCc2cc3c(cc21)Oc1cc2c(cc1=N3)CCC[N+]=2CCCC(=O)NCC(=O)N[C@@H](CO)C(=O)NCC(=O)N[C@@H](CO)C(=O)NCC(=O)N[C@@H](CO)C(=O)NCC(=O)N[C@@H](CO)C(=O)NCC(=O)N[C@@H](CO)C(=O)NCC(=O)N[C@@H](CO)C(=O)NCC(=O)N[C@@H](CO)C(=O)NCC(=O)N[C@@H](CO)C(=O)NCC(=O)N[C@@H](CO)C(=O)N[C@@H](Cc1c[nH]c2ccccc12)C(=O)[O-]
- end-to-end contact formation time constant (ns (closing time constant tau+ = 1/k+)): 48.9

SMILES: CCN1CCCc2cc3c(cc21)Oc1cc2c(cc1=N3)CCC[N+]=2CCCC(=O)NCC(=O)N[C@@H](CO)C(=O)NCC(=O)N[C@@H](CO)C(=O)NCC(=O)N[C@@H](CO)C(=O)NCC(=O)N[C@@H](CO)C(=O)NCC(=O)N[C@@H](CO)C(=O)NCC(=O)N[C@@H](CO)C(=O)NCC(=O)N[C@@H](CO)C(=O)NCC(=O)N[C@@H](CO)C(=O)NCC(=O)N[C@@H](CO)C(=O)NCC(=O)N[C@@H](CO)C(=O)NCC(=O)N[C@@H](CO)C(=O)NCC(=O)N[C@@H](CO)C(=O)NCC(=O)N[C@@H](CO)C(=O)NCC(=O)N[C@@H](CO)C(=O)NCC(=O)N[C@@H](CO)C(=O)N[C@@H](Cc1c[nH]c2ccccc12)C(=O)[O-]
- end-to-end contact formation time constant (ns (closing time constant tau+ = 1/k+)): 103

SMILES: CCN1CCCc2cc3c(cc21)Oc1cc2c(cc1=N3)CCC[N+]=2CCCC(=O)NCC(=O)N[C@@H](CO)C(=O)NCC(=O)N[C@@H](CO)C(=O)NCC(=O)N[C@@H](CO)C(=O)NCC(=O)N[C@@H](CO)C(=O)NCC(=O)N[C@@H](CO)C(=O)NCC(=O)N[C@@H](CO)C(=O)NCC(=O)N[C@@H](CO)C(=O)N[C@@H](Cc1c[nH]c2ccccc12)C(=O)[O-]
- end-to-end contact formation time constant (ns (closing time constant tau+ = 1/k+)): 32.7

SMILES: CCN1CCCc2cc3c(cc21)Oc1cc2c(cc1=N3)CCC[N+]=2CCCC(=O)NCC(=O)N[C@@H](CO)C(=O)NCC(=O)N[C@@H](CO)C(=O)NCC(=O)N[C@@H](CO)C(=O)NCC(=O)N[C@@H](CO)C(=O)NCC(=O)N[C@@H](CO)C(=O)NCC(=O)N[C@@H](CO)C(=O)NCC(=O)N[C@@H](CO)C(=O)NCC(=O)N[C@@H](CO)C(=O)NCC(=O)N[C@@H](CO)C(=O)NCC(=O)N[C@@H](CO)C(=O)NCC(=O)N[C@@H](CO)C(=O)NCC(=O)N[C@@H](CO)C(=O)N[C@@H](Cc1c[nH]c2ccccc12)C(=O)[O-]
- end-to-end contact formation time constant (ns (closing time constant tau+ = 1/k+)): 68.4

SMILES: CCN1CCCc2cc3c(cc21)Oc1cc2c(cc1=N3)CCC[N+]=2CCCC(=O)NCC(=O)N[C@@H](CO)C(=O)NCC(=O)N[C@@H](CO)C(=O)NCC(=O)N[C@@H](CO)C(=O)NCC(=O)N[C@@H](CO)C(=O)NCC(=O)N[C@@H](CO)C(=O)N[C@@H](Cc1c[nH]c2ccccc12)C(=O)[O-] [MR121-Gly-Ser-Gly-Ser-Gly-Ser-Gly-Ser-Gly-Ser-Trp-O-]
- end-to-end contact formation time constant (ns (closing time constant tau+ = 1/k+)): 20.5

SMILES: CCN1CCCc2cc3c(cc21)Oc1cc2c(cc1=N3)CCC[N+]=2CCCC(=O)NCC(=O)N[C@@H](CO)C(=O)NCC(=O)N[C@@H](CO)C(=O)N[C@@H](Cc1c[nH]c2ccccc12)C(=O)[O-] [MR121-Gly-Ser-Gly-Ser-Trp-O-]
- end-to-end contact formation time constant (ns (closing time constant tau+ = 1/k+)): 14.6
